This is an account of results in US8703427B2, “Biological materials and uses thereof” (PhotoBiotics Limited, priority 2005, dated 2014).

Data set [1] deals with Barrett's oesophagus cancer. Conditions: clinical PDT, systemic; cited from earlier work.
The subject of data set [2] is Basal cell cancer of skin. The conditions noted are these: clinical PDT, topical; cited from earlier work.
The conditions of data set [3]: in vivo; cited from earlier work.
The target of the next data set is Her-2 receptor (human) (UniProt P04626). Put plainly: cell-based or functional assay.
The next data set concerns Oral cancer. The conditions noted are these: clinical PDT, over 5-53 months; cited from earlier work.
Data set [4] deals with Chest wall recurrence in breast cancer. Conditions: clinical PDT; cited from earlier work.
The test system of the next data set is Bladder cancer. Conditions: clinical PDT; cited from earlier work.
Data set [5] is described as follows: Fluorescence of conjugates in PBS (excitation 410 nm, emission 680 nm). Conditions: measured in PBS buffer. In kind it is physicochemical. The procedure: • 1. Serial dilutions (halving concentrations) of the conjugates were made in PBS and the fluorescence was measured at an excitation wavelength of 410 nm and an emission wavelength of 680 nm. • 2. These were compared to free PPa in PBS. Examples are shown for c6.5 scFv-PPa (FIG. 11) and MFE scFv-PPA (+/− benzoic acid) (FIG. 12)

Data set [6] deals with KB cells. Put plainly: Immunofluorescent microscopy, HER-2-negative cells. In kind it is cell-based, human. Conditions: 1 hour incubation; images and emission spectra. The procedure: FIG. 24—Immunofluorescent microscopy of C6.5-PPa photo-immunoconjugate Antigen negative KB cells (A-D) or antigen positive SKOV3 cells (E-J) were incubated with free PPa or C6.5-PPa photo-immunoconjugate for 1 hour. Images and emission spectra were recorded.
• 1. Round coverslips were washed in ethanol and rinsed in PBS. Coverslips were then placed in 12-well tissue culture plates. • 2. SKOV3 cells were trypsinised and washed with PBS. The cell pellet was resuspended in McCoy's media and cells were seeded onto the coverslips at 2×10^5 cells/ml. The cells were incubated overnight at 37° C. and 5% CO2. • 3. The coverslips with the adherent cells were rinsed carefully in PBS and either C6-PPa or PBS was added to the wells. The cells were incubated at 37° C. and 5% CO2 for 30 minutes after which time they were washed carefully with PBS. • 4. The cells were fixed onto the coverslips by incubating in 2 ml 4% paraformaldehyde for 60 minutes at room temperature. After this time, the coverslips were washed with PBS and inverted cell-side down onto glass slides. The edges of the coverslips were then sealed using nail varnish. • 5. Fluorescence imaging was then performed using an Ar+ laser (418 nm) as excitation source, using a Leica laser scanning confocal microscope, images are shown in FIGS. 20 and 24, and the emission spectrum is shown in FIGS. 21 and 24.

In another data set the test system is SKOV3 cells. The data set can be described thus: In vitro PDT cell killing (Cytotox-96), antigen-positive cells. In kind it is cell-based, human. Conditions: 30 min incubation, laser light 2 min, 1.4 J/cm^2, cell kill assay after 48 hours. As for the experimental part: (§1) • 1. […] The flask was incubated at 37° C., 5% CO2 for 15 mins or until the cells had detached from the flask. The cells were then placed in a 50 ml Falcon tube and the trypsin deactivated by adding 15 ml DMEM or McCoy's medium. • 3. Cells (20 μl) were taken out of the tube and placed on a haemocytometer for counting. The remaining cells were harvested at 1800 g for 10 min at room temperature and the pellet gently resuspended in 1 ml of DMEM or McCoy's medium. The cells were thoroughly resuspended and a further 19 ml of DMEM or McCoy's medium added. The cells were diluted in DMEM or McCoy's medium accordingly to give 2×10^6 cells/ml. Cells (50 μl) were then added to each well of a 96 well plate and incubated overnight at 37° C. and 5% CO2. • 4. […] Cells were washed once with PBS and 50 μl of the conjugate added to wells in quadruplicate. Control wells were also included (wells with conjugate added but not exposed to light, and wells with neither conjugate added nor exposed to light). […] Cells were incubated in the conjugate or free PS (concentration varies) for 30 min at 37° C., 5% CO2 and then washed 3 times with PBS. […] The PBS was removed from each well and 100 μl of DMEM or McCoy's medium added. The plates were loosely wrapped in foil, but covered adequately so that no ambient light could enter.

Data set [7] deals with KB cells. Put plainly: In vitro PDT cell killing (Cytotox-96), antigen-negative cells. Conditions: 30 min incubation, laser light 2 min, 1.4 J/cm^2, cell kill assay after 48 hours. The class given is cell-based, human. As for the experimental part: as §1
The test system of data set [8] is vision loss associated with AMD. Conditions: PDT compared to the placebo control; cited from earlier work.
A further data set has as its system Barrett's mucosal cancer. The conditions noted are these: clinical PDT; cited from earlier work.

The IC50 is the concentration needed to halve the response being measured.

Regarding `NCC(=O)CCC(=O)O` [ALA, 5-aminolaevulinic acid], the High-grade dysplasia entry in data set [1] is “erradicated in all patients”. The complete response in data set [2] is listed as 90% complete response.

On to `Oc1cccc(-c2c3nc(c(-c4cccc(O)c4)c4ccc([nH]4)c(-c4cccc(O)c4)c4nc(c(-c5cccc(O)c5)c5ccc2[nH]5)CC4)C=C3)c1` [Foscan™, meta-tetrahydroxyphenyl chlorin], for which the skin photosensitivity entry in data set [3] is “about 2 weeks”.

Consider “C6.5 scFv-Verteporfin (Visudyne™) conjugate”, for which the IC50 of in vitro PDT cell killing on antigen-positive SKOV3 cells in the data set with Her-2 receptor (human) is 2.2 µM.

In the case of Dihematoporphyrin ether, the complete response in the data set on Oral cancer is 87% complete response; in data set [4] it was 20% complete response,. Besides, the partial response in data set [4] is reported as 45% partial response.

Hematoporphyrin derivative: in the data set with Bladder cancer, the “alive after 5 years” value was 30% alive after 5 years and the complete response was 74% complete response,.

Pyropheophorbide a [PPa]: the “fluorescence / photophysical properties” value in [5] is “does not fluoresce significantly”. Also, in the data set with KB cells [6], the “uptake of PPa, KB cells vs SKOV3 cells” value was “over 2 fold”.

Turning to “benzoporphyrin derivative mono acid [Verteporfin (Visudyne™)]”, the IC50 in the data set with SKOV3 cells was determined as 15.3 µM; in the data set on KB cells [7] it was 10 µM. The “recovering vision loss associated with AMD” value in data set [8] is “more effective”.

With porfimer sodium, in the data set with Barrett's mucosal cancer, the “conversion to normal epithelium” value is 75% conversion to normal and the tumours result is “eliminated”.
